Patent US9220746B2, “Compounds and methods for treating bone disorders and controlling weight” (The University of North Carolina at Chapel Hill, priority 2009, dated 2015)
“Also recorded” adds a separate entry of the source.

Columns and labels:
IGFBP-2 knockout mice [1] = assay: Glucose tolerance test in IGFBP-2 knockout mice; format: in vivo, mouse; conditions: knockout animals with impaired glucose tolerance; not significantly different from control mice
Igfbp2−/− COBs and BMSCs = assay: In vitro osteoblastogenesis of calvarial osteoblasts and bone marrow stromal cells (ALP, Alizarin Red staining); format: cell-based, mouse
Experimental: FIG. 1. The heparin-binding domain of IGFBP2 enhances osteoblastogenesis in vitro. a. Von Kossa staining was performed using tibia from 8 weeks old Igfbp2^+/+ and Igfbp2^−/− male mouse. b. Calvarial osteoblasts (COBs) were harvested from day 7 old male Igfbp2^+/+ and Igfbp2^−/− male mouse, and treated with osteogenic media in the presence of 2.5% FCS. At day 7, alkaline phosphatase (ALP) staining was performed. c and d. COBs and Bone marrow stromal cells (BMSCs) from Igfbp2^−/− mouse were treated with osteogenic media with pegylated heparin-binding domain peptide (PEG-HBD) in the presence of 10% FCS. ALP staining (day 7) and Alizarin Red staining (day 14) were performed (c). RNA was isolated at day 14 from BMSCs and expression of ALP, osteocalcin (OC) and Runx2 was analyzed by real-time PCR. Figures shown represent at least 3 independent experiments (n=3). Statistical difference was analyzed by student's t test. *; p<0.05.
FIG. 7. […] Igfbp2^−/− calvarial osteoblasts (COBs) were cultured with osteogenic media with PBS, control peptide (2 μg/ml) or heparin binding domain peptide (HBD-peptide) (2 μg/ml). Osteoblastogenesis was evaluated by Alizarin Red staining.
Neonatal calvarial osteoblasts were collected from 7-10 day old mice as previously described^53. Briefly, calvariae were digested 5 times with collagenase P and Trypsin. Cells released from digests 2 through 5 were collected as primary calvarial osteoblasts, and maintained in DMEM supplemented with 10% FCS and non-essential amino acids. Osteoblastogenesis of primary calvarial osteoblasts was carried out by treating cells with 4 mM β-glycerophosphate and 50 μg/ml ascorbic acid in αMEM. Bone marrow stromal cells (BMSCs) were harvested from femurs and tibias of 8 weeks old mice as described previously^10. Osteoblastogenesis of BMSCs was induced by the treatment with osteogenic media consisting of αMEM containing 10% FCS, 8 mM β-glycerophosphate, and 50 μg/ml ascorbic acid.

IGFBP-2 knockout mice [2] = assay: Body weight and fat mass of IGFBP-2 knockout mice given the heparin binding peptide; format: in vivo, mouse; conditions: IGFBP-2 −/− mice, 50 mcg intraperitoneally three days per week, 6 week treatment; for Fat Mass: by MRI
Experimental: Further experiments have been carried out in which the knockout mice and control animals have been administered the mouse homologue of the heparin binding peptide. The peptide was administered to 8 animals in each group. The knockout animals weighed 30.4±1.5 gm whereas the control animals weighed 25.2±1.1 gm. The knockout animals that received the active peptide weighed 24.9±1.3 gm. […] More importantly when absolute fat mass was analyzed by MRI, highly significant differences were also present. The knockout mice had 6.21±0.76 grams of fat. The control mice had 3.82±0.67 grams and the knockout mice administered the heparin binding peptide had 3.67±0.36 grams. Again these are highly significant differences.

metacarpals = assay: Metacarpal culture ex vivo (calcein incorporated area, length, width); format: cell-based, mouse
Experimental: FIG. 2. The heparin binding domain of IGFBP2 enhances periosteal expansion of metacarpals ex vivo. Metacarpals were collected from day 1 male mouse, and treated with osteogenic media with IGFBP2 (200 ng/ml) or the heparin-binding domain peptide (HBD-peptide) (2 μg/ml) in the presence or absence of IGF-1 (20 ng/ml) for 10 days. Bones were labeled with calcein (500 ng/ml) and calcein incorporated area was visualized (a) and longitudinal length of calcein incorporated area was quantified (b). Alcian blue and Von Kossa double staining was performed (c) and length and width of metacarpals were quantified (d). Statistical difference was analyzed by ANOVA followed by Bonferroni post-hoc test. Figures shown represent at least 3 independent experiments. Values are expressed as the mean±SEM (n=3-4). ^a; <0.05 vs PBS, ^b; <0.01 vs PBS, ^c; <0.001 vs PBS, ^d; <0.01 vs HBD, ^e; <0.05 vs IGF-I, ^f; <0.05 vs HBD.
Metacarpals were isolated from Igfbp2^−/− mice at 1-day old and incubated in DMEM containing 0.5% BSA, 50 μg/ml ascorbic acid and 1 mM β-glycerol phosphate for 10 days^54. Stimulants were added to culture media from day 1. At day 10, metacarpals were incubated in media containing calcein (500 ng/ml) for 2 hours for staining of calcium deposition, and images were obtained. Then, bones were fixed with 4% PFA, embedded in paraffin, and processed for Alcian blue and von Kossa double staining.

Igfbp2−/− mice = assay: MicroCT of femurs and vertebrae (L5) after in vivo treatment of Igfbp2−/− mice; set-up: species or system mouse; conditions: in vivo administration, summary statement
Experimental: Igfbp2^+/+ and Igfbp2^−/− mice were administered with PBS or PEG-HBD-peptide (50 μg/day) intraperitoneally 5 times per week from 6 to 9 weeks of age. Dual-energy x-ray absorptiometry was performed before the initiation of treatment. Mice were injected with 20 mg/kg calcein intraperitoneally 7 days and 2 days before sample collection.
Microarchitecture of distal trabecular bone and midshaft cortical bone was analyzed with femurs and vertebrae (L5) by MicroCT (MicroCT40)^10. Approximately 100 slices were measured just proximal to the distal growth plate, with an isotropic pixel size of 12 μm and slice thickness of 12 μm. Midshaft cortical bone thickness was analysis in a similar fashion using approximately 18 slices obtained at the exact midpoint of the femur.

BP2−/− mice = assay: Flow cytometry of white blood cell populations in peripheral blood; format: in vivo, mouse; conditions: BP2−/− male mice, intraperitoneal injection, vs PBS injected controls
[3] = listed as heparin binding peptide

For “KHLSLEEPKKLRP (IGFBP-2 heparin binding domain-containing peptide sequence) [HBD-peptide]”, the glucose tolerance (IGFBP-2 knockout mice [1]) was “significantly improved”, the “mineralization of Igfbp2−/− COBs (Alizarin Red) compared to PBS” value (Igfbp2−/− COBs and BMSCs; 2 μg/ml, osteogenic media) was “fully active” and the “cell proliferation of osteoblasts and bone marrow stromal cells (alkaline phosphatase, alizarin red staining)” value (Igfbp2−/− COBs and BMSCs; compared to full length (FL) IGFBP-2 and control peptide) was “increased cell proliferation”. The “bone mineralization phenotype of Igfbp2−/− bone marrow stromal cells and calvarial osteoblasts” value (Igfbp2−/− COBs and BMSCs; in vitro, summary statement) was “rescued the low bone mineralization phenotype”, the “Fat Mass” value (IGFBP-2 knockout mice [2]; listed as HBD) was 3.67 ± 0.36 gms and the “Fat Mass” value (IGFBP-2 knockout mice [2]; [3]) was 3.67±0.36 gms. For the same sequence, the “Body Weight” value (IGFBP-2 knockout mice [2]; listed as HBD) was 24.9 ± 1.3 gms, the “Body Weight” value (IGFBP-2 knockout mice [2]; [3]) was 24.9±1.3 gms and the “calcein incorporated area of metacarpals” value (metacarpals; 10 days, IGFBP2 200 ng/ml, peptides 2 μg/ml, IGF-1 20 ng/ml, vs PBS) was “significantly enhanced”. The “width (and length) of metacarpals” value (metacarpals; 10 days, IGFBP2 200 ng/ml, peptides 2 μg/ml, vs PBS) was “increased the width of metacarpals”, the “periosteal expansion and growth of Igfbp2−/− metacarpal explants” value (metacarpals; ex vivo, summary statement) was “stimulated periosteal expansion and growth” and the “bone mass phenotype of Igfbp2−/− mice (trabecular bone mass, osteoblast number)” value (Igfbp2−/− mice) was “rescued the low bone mass phenotype”. For the same sequence, the “bone mass phenotype of Igfbp2−/− mice (trabecular bone mass, osteoblast number)” value (Igfbp2−/− mice; listed as HBD) was “trabecular bone mass was rescued and osteoblast number increased”, the “percentages of differentiated lymphoid and myeloid cells (monocytes, macrophages, neutrophils) in peripheral blood” value (BP2−/− mice; listed as HBD) was “suppressed the percentages of mature monocytes, macrophages and neutrophils; also recorded: reduced the number of differentiated lymphoid and myeloid cells” and the “percentages of differentiated lymphoid and myeloid cells (monocytes, macrophages, neutrophils) in peripheral blood” value (BP2−/− mice; listed as IGFBP-2 heparin binding domain (HBD) peptide) was “reduced the percentage of macrophages”.
